Results as given in US9487553B2, “Boranophosphate analogues of cyclic nucleotides” (BIOLOG LIFE SCIENCE INSTITUTE FORSCHUNGSLABOR UND …, priority 2011, dated 2016).
One block for each compound: values may come before it.

Experiments:
[1] = Degradation Example 8: oxidation with hydrogen peroxide, monitored by HPLC; type: physicochemical; conditions: after 1 hour at RT
Experimental: Finally, with the Sp-isomer of 8-bromoguanosine-3′,5′-cyclic boranophosphate (Sp-8-Br-cGMPB, example 6) also the oxidative stability of a cyclic boranophosphate with a modified guanine nucleobase was investigated and again compared to the corresponding phosphorothioate Rp-8-bromoguanosine-3′,5′-cyclic phosphorothioate (Rp-8-Br-cGMPS, Biolog).
Both compounds were treated together with two 10 μl doses of 30% aqueous hydrogen peroxide (Merck). During more than four hours, oxidative degradation was monitored by HPLC (RP-18, 15 Vol.-% acetonitrile, 20 mM triethylammonium formate buffer, pH 6.5, 1.5 ml/min., UV 263 nm) and corresponding peak areas were recorded and compared (Tab. 7).

[2] = molecular target: T1, protein kinase G type I α, activated by cGMP (Homo sapiens, UniProt Q13976); assay: Suppression of cGMP-stimulated protein kinase G type I alpha activity; type: biochemical; conditions: 10 nM, 100 nM and 1 μM; cGMP 200 nM
T1 sequence (Q13976 1-671): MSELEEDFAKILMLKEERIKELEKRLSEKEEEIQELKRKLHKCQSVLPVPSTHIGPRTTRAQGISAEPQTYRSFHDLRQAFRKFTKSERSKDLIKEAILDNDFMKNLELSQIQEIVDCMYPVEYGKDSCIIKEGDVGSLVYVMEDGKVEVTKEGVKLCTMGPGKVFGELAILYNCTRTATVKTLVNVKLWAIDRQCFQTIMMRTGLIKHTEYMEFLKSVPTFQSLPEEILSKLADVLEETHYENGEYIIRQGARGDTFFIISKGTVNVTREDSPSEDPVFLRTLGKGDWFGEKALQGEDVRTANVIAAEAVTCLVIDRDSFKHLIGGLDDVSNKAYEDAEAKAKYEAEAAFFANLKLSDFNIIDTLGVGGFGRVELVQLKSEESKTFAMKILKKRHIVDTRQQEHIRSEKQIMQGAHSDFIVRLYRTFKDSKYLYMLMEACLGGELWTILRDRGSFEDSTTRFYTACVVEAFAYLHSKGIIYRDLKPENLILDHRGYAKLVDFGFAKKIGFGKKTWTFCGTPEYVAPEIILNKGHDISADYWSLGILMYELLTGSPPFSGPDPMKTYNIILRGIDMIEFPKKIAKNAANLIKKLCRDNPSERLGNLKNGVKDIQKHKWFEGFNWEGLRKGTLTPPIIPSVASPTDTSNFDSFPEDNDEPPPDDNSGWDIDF

[3] = Degradation Example 4: oxidation with hydrogen peroxide, monitored by HPLC; type: physicochemical; conditions: after 3 hours at RT
Experimental: As a control, the corresponding cyclic nucleotide with phosphorothioate modification (Rp-8-BT-2′-O-Me-cAMPS, Biolog) had been added. The oxidation process was monitored by reversed phase HPLC (RP-18, 30 Vol.-% acetonitrile, 20 mM triethylammonium formate buffer, pH 8.3, 2 ml/min, UV 282 nm). The areas of both peaks were recorded, integrated and compared (Tab. 2).

PDE 1 = assay: Resistance towards phosphodiesterase: incubation with PDE 1 from bovine heart, HPLC; conditions: bovine, pH 7.2
Experimental: (§1) For this purpose 0.1 μmol of Rp-8-bromoadenosine-3′,5′-cyclic boranophosphate (example 1) and Sp-8-bromoadenosine-3′,5′-cyclic boranophosphate […] dissolved in TRIS buffer pH 7.2 containing calcium chloride and calmodulin and incubated with PDE type I from bovine brain (Sigma-Aldrich) at 37° C. Activity of the enzyme was checked by hydrolysis of cyclic AMP. Stability was monitored by HPLC (RP-18, 11 Vol.-% propanol-2, 20 mM TEAF buffer, pH 6.8, 1 ml/min., UV 264 nm). […] This strategy of testing PDE performance was applied accordingly in degradation examples 10 and 11.
(§2) Thus, Rp-8-Br-cAMPB (example 1) and Sp-8-Br-cAMPS (Biolog, Bremen/Germany) were incubated with PDE 1 from bovine heart (Sigma-Aldrich) and monitored by HPLC as described above.
(§3) Rp-2′-O-Me-cAMPB (example 7) and Sp-2′-O-Me-cAMPS (Biolog, Bremen/Germany).

[4] = molecular target: protein kinase A type II alpha holoenzyme (Homo sapiens, UniProt P13861); assay: Photometric (Cook) assay with protein kinase A type II alpha holoenzyme; type: biochemical; conditions: activation of protein kinase A type II; data not shown
Chain of protein kinase A type II alpha holoenzyme (P13861 whole entry): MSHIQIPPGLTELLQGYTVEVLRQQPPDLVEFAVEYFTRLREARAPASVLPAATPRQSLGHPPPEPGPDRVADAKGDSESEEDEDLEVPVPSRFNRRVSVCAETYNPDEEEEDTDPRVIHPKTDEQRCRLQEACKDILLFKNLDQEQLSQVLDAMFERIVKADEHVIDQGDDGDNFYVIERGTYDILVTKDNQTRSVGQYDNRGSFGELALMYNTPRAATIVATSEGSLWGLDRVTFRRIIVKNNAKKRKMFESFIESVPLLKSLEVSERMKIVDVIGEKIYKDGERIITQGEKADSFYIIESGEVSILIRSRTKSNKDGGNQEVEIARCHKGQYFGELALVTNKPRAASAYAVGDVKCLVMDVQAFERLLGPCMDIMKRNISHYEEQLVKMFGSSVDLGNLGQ
Source text: In another similar experiment the properties of Rp- and Sp-8-Br-cAMPB towards protein kinase A type II a were investigated in the photometric assay (Cook, P. F., Neville, M. E., Jr., Vrana, K. E., Hartl, F. T. and Roskoski, R., Jr., Biochemistry 21, 5794-5799 (1982))

[5] = Degradation Example 6: oxidation with hydrogen peroxide, monitored by HPLC; type: physicochemical; conditions: after 1 hour at RT
Experimental: Thus, 0.1 μmol of the cyclic boranophosphate 2-chloroadenosine-3′,5′-cyclic boranophosphate, Sp-isomer (Sp-2-Cl-cAMPB, example 71) and 0.1 μmol of the corresponding phosphorothioate 2-chloroadenosine-3′,5′-cyclic phosphorothioate, Rp-isomer (Rp-2-Cl-cAMPS, Biolog) as a control, were each dissolved in 100 μl of water, combined and treated with 10 μl of 30% aqueous hydrogen peroxide (Merck), and another 10 μl after one hour. During 2.5 hours, oxidative degradation was monitored by HPLC (RP-18, 15 Vol.-% acetonitrile, 20 mM triethylammonium formate buffer, pH 6.5, 1.5 ml/min., UV 262 nm). Corresponding peak areas were recorded, integrated and compared (Tab. 5).

[6] = system: PDE type I from bovine brain; assay: Resistance towards phosphodiesterase: incubation with PDE type I from bovine brain, HPLC; conditions: PDE type I from bovine brain, 37° C., up to 8 days
Experimental: Activity of the enzyme was checked by hydrolysis of cyclic AMP. Stability was monitored by HPLC (RP-18, 11 Vol.-% propanol-2, 20 mM TEAF buffer, pH 6.8, 1 ml/min., UV 264 nm).

PDE 1 from bovine heart = assay: Resistance towards phosphodiesterase: incubation with PDE 1 from bovine heart, HPLC; conditions: PDE 1 from bovine heart, up to 8 days of incubation
Experimental: as §1, §2, §3

PDE IV (A4B) = molecular target: T2, PDE IV (A4B) (Homo sapiens, UniProt P27815); assay: Stability against PDE IV, HPLC; type: in vitro ADME; conditions: several days
T2 construct: Houslay lab, Glasgow/Scotland (obtained from another laboratory)
T2 sequence (P27815 whole entry): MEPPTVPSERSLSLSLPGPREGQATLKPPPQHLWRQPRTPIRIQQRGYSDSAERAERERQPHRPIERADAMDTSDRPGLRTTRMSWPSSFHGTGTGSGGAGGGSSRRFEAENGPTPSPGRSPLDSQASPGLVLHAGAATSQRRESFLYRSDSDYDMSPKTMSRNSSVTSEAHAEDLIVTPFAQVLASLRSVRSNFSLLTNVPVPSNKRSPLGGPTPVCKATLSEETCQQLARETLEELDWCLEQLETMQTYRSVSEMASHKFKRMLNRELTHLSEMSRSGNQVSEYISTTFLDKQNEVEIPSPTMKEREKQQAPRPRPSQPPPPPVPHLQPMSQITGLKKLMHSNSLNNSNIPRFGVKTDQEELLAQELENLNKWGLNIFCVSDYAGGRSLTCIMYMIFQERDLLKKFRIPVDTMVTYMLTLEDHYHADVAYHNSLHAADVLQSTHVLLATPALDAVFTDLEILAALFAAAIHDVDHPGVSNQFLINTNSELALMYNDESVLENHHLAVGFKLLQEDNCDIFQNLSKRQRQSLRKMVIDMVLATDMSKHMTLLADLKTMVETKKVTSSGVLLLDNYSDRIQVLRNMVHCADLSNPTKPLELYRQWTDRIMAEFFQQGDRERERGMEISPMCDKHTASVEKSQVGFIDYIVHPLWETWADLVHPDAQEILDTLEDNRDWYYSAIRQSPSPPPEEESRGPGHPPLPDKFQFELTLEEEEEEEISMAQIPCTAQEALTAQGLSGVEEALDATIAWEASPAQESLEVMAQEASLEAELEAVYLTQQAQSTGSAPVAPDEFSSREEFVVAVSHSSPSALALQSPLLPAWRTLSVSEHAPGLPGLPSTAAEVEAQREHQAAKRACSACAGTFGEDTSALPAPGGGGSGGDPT
Experimental: Next, stability of the disclosed boranophosphates against PDE IV (A4B, Houslay lab, Glasgow/Scotland) was tested in similar experiments as described above.

[7] = molecular target: protein kinase A type I alpha holoenzyme (Homo sapiens, UniProt P10644); assay: Standard photometric (Cook) assay with protein kinase A type I alpha holoenzyme; type: biochemical; conditions: holoenzyme RIα
Chain of protein kinase A type I alpha holoenzyme (P10644 whole entry): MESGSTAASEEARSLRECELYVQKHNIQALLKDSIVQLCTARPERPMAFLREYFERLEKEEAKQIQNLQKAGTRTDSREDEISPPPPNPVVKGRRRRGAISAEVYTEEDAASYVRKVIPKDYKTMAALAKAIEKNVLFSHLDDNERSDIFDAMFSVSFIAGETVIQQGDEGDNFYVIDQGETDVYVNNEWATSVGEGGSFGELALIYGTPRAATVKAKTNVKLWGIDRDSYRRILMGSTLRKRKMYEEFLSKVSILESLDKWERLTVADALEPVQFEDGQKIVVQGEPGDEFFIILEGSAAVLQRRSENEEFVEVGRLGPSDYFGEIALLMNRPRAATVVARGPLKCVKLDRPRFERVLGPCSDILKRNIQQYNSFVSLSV
Source text: In a first experiment, the biological activity of the Rp- and Sp-isomer of 8-bromoadenosine-3′,5′-cyclic boranophosphate (examples 1 and 2) has been tested with the holoenzyme of protein kinase A type I alpha (FIGS. 3 and 4) using a standard photometric assay (Cook, P. F.; Neville, M. E., Jr.; Vrana, K. E.; Hartl, F. T. and Roskoski, R., Jr., Biochemistry 21, 5794-5799 (1982)).
As a control, two boranophosphate analogues with a 2′-O-methyl modification (Rp-2′-O-Me-cAMPB and Sp-2′-O-Me-cAMPB, examples 7 & 8) have been tested by the same type of assay with protein kinase A type I alpha as well.
FIG. 5 depicts the activity overview of four different cyclic boranophosphate analogues with protein kinase A type I alpha holoenzyme. 9108: Sp-2′-O-Me-cAMPB; 9109: Rp-2′-O-Me-cAMPB; 9110: Sp-8-Br-cAMPB; 9111: Rp-8-Br-cAMPB; controls: B 001: Rp-8-Br-cAMPS. Control: cAMP. “Cook Assay” with Holoenzyme RIα.

peak area, % of the original area [1]: 65%
antagonism of protein kinase G [2]: showed antagonistic potential
Compound: B[PH]1(O)OC[C@H]2O[C@@H](n3c(Br)nc4c(=O)[nH]c(N)nc43)C(O)[C@@H]2O1 (stereo partly drawn) [Sp-8-Br-cGMPB, 8-Bromoguanosine-3′,5′-cyclic boranophosphate, Sp-isomer]

Compound: 8-Benzylthio-2′-O-methyladenosine-3′,5′-cyclic boranophosphate, SP-isomer [Sp-8-BT-2′-O-Me-cAMPB]
peak area, % of the original area [3]: 73%

Compound: Nc1ncnc2c1nc(Br)n2C1OC2COP(O)(=S)OC2C1O (stereo not drawn) [Sp-8-Br-cAMPS, Sp-8-bromoadenosine-3′,5′-cyclic phosphorothioate, reference compound]
half-life (PDE 1): ~50 h
EC50 [4]: 710 nM

Compound: Nc1nc(Cl)nc2c1ncn2[C@@H]1O[C@@H]2COP(O)(=S)OC2[C@@H]1O (single isomer, unassigned) [Rp-2-Cl-cAMPS, 2-chloroadenosine-3′,5′-cyclic phosphorothioate, Rp-isomer, reference compound]
degraded [5]: 22%

Compound: Nc1nc2c(nc(Br)n2[C@@H]2O[C@@H]3COP(O)(=S)O[C@H]3[C@H]2O)c(=O)[nH]1 (stereo partly drawn) [Rp-8-Br-cGMPS, Rp-8-bromoguanosine-3′,5′-cyclic phosphorothioate, reference compound]
degraded [1]: 15%

degradation by PDE [6]: stable over the whole assay period
degradation by PDE (PDE 1 from bovine heart): stable over the whole assay period
stability against PDE IV (PDE IV (A4B)): completely stable
Compound: B[PH]1(O)OC[C@H]2O[C@@H](n3cnc4c(N)ncnc43)C(OC)[C@@H]2O1 (stereo partly drawn) [Rp-2′-O-Me-cAMPB, 2′-O-Methyladenosine-3′,5′-cyclic boranophosphate, Rp-isomer]
effect on protein kinase A type I alpha holoenzyme [7]: neither Rp- nor Sp-2′-O-Me-cAMPB did modulate the kinase in any way

peak area, % of the original area [5]: 90%
Compound: 2-Chloroadenosine-3′,5′-cyclic boranophosphate, Rp-isomer [Rp-2-Cl-cAMPB]
